Paper PMC4033217, “Characterization of Novel PI3Kδ Inhibitors as Potential Therapeutics for SLE and Lupus Nephritis in Pre-Clinical Studies” (Frontiers in Immunology, 2014)

Columns and labels:
BXSB mice = test system: BXSB mice; design: method as in PMID 24445960; conditions: cited from earlier work
NZB/W F1 mice [1] = assay: IFNα-accelerated NZB/W F1 mouse SLE model; type: in vivo
Experimental: (§1) All protocols and procedures were conducted according to German animal protection law (Tierschutzgesetz) and were approved by the local veterinarian authorities (Regierungspräsidium, Darmstadt, Germany). Ten-week-old female NZB/W F1 mice (Jackson Laboratories, Bar Harbor, ME, USA) were given a single i.v. injection of 1 × 10^8 IU/100 μl of AdV-IFN-α (adenovirus with mmIfna5_v1 insert, Biofocus, CoA.NL.09.160) in saline or left untreated (sham). Drug treatments were either initiated at 2 weeks (early intervention regimen) or 4 weeks (late intervention regimen) post AdV-IFN-α delivery until the end of the experiment (at 10 weeks). […] Serum and urine samples were collected for anti-dsDNA antibodies (by ELISA) and urinary protein creatinine ratio (UPCR) (measured by ADVIA 1800) determination, respectively, on the days indicated. Proteinuria is defined as UPCR >3.

NZB/W F1 mice [2] = assay: Lymphocyte subsets in spleen at end of treatment, accelerated NZB/W F1 SLE model; type: in vivo, mouse; conditions: MMF 300 mg/kg once daily, early intervention
Experimental: as §1

CD69 on B220+ B cells = assay: Ex vivo anti-IgD-induced CD69 up-regulation in the SLE model; design: species or system mouse; conditions: once daily for 2 weeks, 1 h after last dosing

Row | Compound | Autoantibody production and kidney pathology (BXSB mice) | Protection against proteinuria (NZB/W F1 mice [1]; early intervention, MSC2360844 66 mg/kg or MMF 300 mg/kg once daily oral) | Serum anti-dsDNA IgG (NZB/W F1 mice [1]; early treatment, neither statistically significant nor dose-dependent) | No. of cells (×10^6) (mean ± SD): B220^+CD19^+ (total B cells) (NZB/W F1 mice [2]) | No. of cells (×10^6) (mean ± SD): CD3^+ (total T-cells) (NZB/W F1 mice [2]) | No. of cells (×10^6) (mean ± SD): CD138^+ (plasma cells) (NZB/W F1 mice [2]) | No. of cells (×10^6) (mean ± SD): GL-7^+IgG^− (GC B cells) (NZB/W F1 mice [2]) | No. of cells (×10^6) (mean ± SD): IgG^+ (class-switched B cells) (NZB/W F1 mice [2]) | No. of cells (×10^6) (mean ± SD): Total splenocytes (NZB/W F1 mice [2]) | No. of cells (×10^6) (mean ± SD): activated CD4^+ T-cells (NZB/W F1 mice [2]) | No. of cells (×10^6) (mean ± SD): activated CD8^+ T-cells (NZB/W F1 mice [2]) | Ex vivo anti-IgD-induced CD69 surface expression on B220+ B cells (CD69 on B220+ B cells)
1 | Cc1ccccc1-n1c(Cn2cnc3c(N)ncnc32)nc2cccc(C)c2c1=O [IC87114] | decreases autoantibody production and kidney pathology |  |  |  |  |  |  |  |  |  |  | 
2 | COc1c(C)c2c(c(O)c1C/C=C(\C)CCC(=O)OCCN1CCOCC1)C(=O)OC2 [MMF, mycophenolate mofetil] |  | almost completely protected against proteinuria | tendency of serum anti-dsDNA IgG reduction | 20.65 (±6.54) ×10^6 | 21.05 (±6.83) ×10^6 | 0.43 (±0.28) ×10^6 | 0.23 (±0.16) ×10^6 | 0.17 (±0.05) ×10^6 | 46.50 (±25.17) ×10^6 | 5.24 (±2.05) ×10^6 | 0.23 (±0.09) ×10^6 | indistinguishable from untreated mice
